# Measurements from patent US20240277890A1, “ANTIMICROBIAL ARTICLES COMPRISING POLYURETHANE” (Amicoat AS, priority 2021, published 2024).
# Read-outs that look alike come from different tables or passages of the source. Peptide text beside a SMILES is read from it. * marks the point of attachment. NHPhenethyl = c1ccc(CCN*)cc1
# Key:
# [1] = system: Methicillin resistant Staphylococcus aureus (MRSA) strain ATCC 33591
# E. coli = conditions: Table 5
# [2] = system: Staphylococcus aureus, strain ATCC 25923
# [3] = system: Methicillin resistant Staphylococcus epidermidis (MRSE) strain ATCC 27626
# P. aeruginosa = conditions: Table 5
# [4] = Staphylococcus aureus ATCC 25923
Compound,S. pyogenes (MIC) (S. pyogenes) [µg/mL],MRSA (MIC) ([1]; ATCC 33591) [µg/mL],S. aureus (MIC) ([2]; ATCC 25923) [µg/mL],MRSE (MIC) ([3]; ATCC 27626) [µg/mL],C. albicans (MIC) (C. albicans) [µg/mL],MIC MRSA ([1]; MRSA ATCC 33591) [µM],MIC MRSE ([3]; MRSE ATCC 27626) [µM],also measured
CCCCCCCCCCCCCCCCNC(=O)[C@H](CCCNC(=N)N)NC(=O)[C@H](Cc1c(C(C)(C)C)[nH]c2c(C(C)(C)C)cc(C(C)(C)C)cc12)NC(=O)[C@@H](N)CCCNC(=N)N [Compound 11],,,,,,,,"S. pyogenes (MIC) (S. pyogenes; Table 5): 6 µg/mL; MRSA (MIC) ([1]; MRSA ATCC 33591): 4 µg/mL; E. coli (MIC) (E. coli): >100 µg/mL; S. aureus (MIC) [2, 4]: 5 µg/mL; MRSE (MIC) ([3]; MRSE ATCC 27626): 4 µg/mL; C. albicans (MIC) (C. albicans; Table 5): >100 µg/mL; P. aeruginosa (MIC) (P. aeruginosa): >100 µg/mL"
CC(C)CNC(=O)[C@H](CCCNC(=N)N)NC(=O)[C@H](Cc1c(C(C)(C)C)[nH]c2c(C(C)(C)C)cc(C(C)(C)C)cc12)NC(=O)[C@@H](N)CCCNC(=N)N [Compound 12],2,3,<2,2,10,,,
N=C(N)NCCC[C@H](NC(=O)[C@H](Cc1ccc(-c2ccc(-c3ccccc3)cc2)cc1)NC(=O)[C@@H](N)CCCNC(=N)N)C(=O)NCCc1ccccc1 [Compound 5],,,,,,3,3,"MIC S. aureus [2, 4]: 5 µM"
CC(C)(C)c1cc(C(C)(C)C)c2[nH]c(C(C)(C)C)c(C[C@H](NC(=O)[C@@H](N)CCCNC(=N)N)C(=O)N[C@@H](CCCNC(=N)N)C(=O)NC3CCCC3)c2c1 [Compound 14],2,,<2,<2,10,,,
"N=C(N)NCCC[C@H](NC(=O)[C@H](Cc1c[nH]c2ccccc12)NC(=O)[C@@H](N)CCCNC(=N)N)C(=O)NCCc1ccccc1 [Compound 6, reference compound] (H-Arg-Trp-Arg-NHPhenethyl)",,,,,,97,81,"MIC S. aureus [2, 4]: 145 µM"
CCCNC(=O)[C@H](CCCNC(=N)N)NC(=O)[C@H](Cc1c(C(C)(C)C)[nH]c2c(C(C)(C)C)cc(C(C)(C)C)cc12)NC(=O)[C@@H](N)CCCNC(=N)N [Compound 10],2,3,2,<2,10,,,
CCCCNC(=O)[C@H](CCCNC(=N)N)NC(=O)[C@H](Cc1c(C(C)(C)C)[nH]c2c(C(C)(C)C)cc(C(C)(C)C)cc12)NC(=O)[C@@H](N)CCCNC(=N)N [Compound 9],2,3,2,<2,10,,,
N=C(N)NCCC[C@H](NC(=O)[C@H](Cc1ccc(-c2cccc3ccccc23)cc1)NC(=O)[C@@H](N)CCCNC(=N)N)C(=O)NCCc1ccccc1 [Compound 3],,,,,,3,3,
CC(C)(C)c1cc(C(C)(C)C)c2[nH]c(C(C)(C)C)c(C[C@H](NC(=O)[C@@H](N)CCCNC(=N)N)C(=O)N[C@@H](CCCNC(=N)N)C(=O)NC3CCCCC3)c2c1 [Compound 13],<2,2,<2,2,10,,,
